The values that follow come from patent US9974290B2, “Animal model and method for studying gene-gene interactions” (UNIVERSITY OF SOUTH FLORIDA, priority 2015, dated 2018).

In the test the test system is Raji B cells. The test is described as follows: Apoptosis assay in Raji B cells treated with PS-341. The format is cell-based. The following applies: Raji B cells treated with PS-341 (FIG. 11B); effect can be rescued by LRBA knockdown. The procedure:
FIGS. 2A, 2B, 2C-1, 2C-2, 2D, and 2E. LRBA interacts with NFkB and regulates cell survival. FIG. 2A: LRBA was stably knocked down in Raji cells by the short hairpin (sh) RNA technique in Raji B cells. NFkB activity was measured by an NFkB luciferase reporter. FIG. 2B: The phospho-NFkB (pS529) levels were detected by Phosflow Kit. FIGS. 2C-1 and 2C-2: TNFα (FIG. 2C-1) and IL10 (FIG. 2C-2) proteins levels were measured by the human Th1/Th2 cytokine bead-array kit. FIG. 2D: Apoptosis assay. Raji B cells were treated with various stress stimuli including proteasome inhibitors, serum starvation and bacterial infection. Apoptosis was detected by Annexin V-PE and 7-AAD. FIG. 2E: LRBA (−/−) ES cell clones were obtained by culturing LRBA (+/−) ES cells with 1 mg/ml G418 for ˜two weeks. Equal number of ES cells was plated into each well of a 96-well plate. The average cell numbers were counted from three wells at each time point.
FIGS. 11A-11E. LRBA interacts with important genes in regulating apoptosis and proliferation. […] FIG. 11A: NFkB activity was measured by an NFkB luciferase reporter. The Phosphorylated (P−) NFkB (pS529) levels were detected by Phosflow Kit. […] The average cell numbers were counted from three wells at each time point. […] Cell lysates from WT or LRBA KD stable Raji cells were analyzed by Western blot. Protein levels were quantified with Quantity One software. […]

On to `CC(C)C[C@H](NC(=O)[C@H](Cc1ccccc1)NC(=O)c1cnccn1)B(O)O` [PS-341], for which the apoptosis entry is given as “promotes apoptosis”.
